Reference: patent US8846729B2, “2-thio-1,3,4-oxadiazoles azetidine derivatives as sphingosine-1 phosphate receptors modulators” (Allergan, Inc., priority 2012, dated 2014)
pEC50: −log10 of the molar value.

Biological target: T1, human S1P1 receptor (Homo sapiens, UniProt P21453)
T1 construct: expressed in transfected cells; membranes used
Assay: GTP γ35S binding assay for S1P1 activity
Format: biochemical
Conditions: membranes of cells stably expressing S1P1 receptor, agonist potency
Protocol: Compounds were synthesized and tested for S1P1 activity using the GTP γ^355 binding assay. These compounds may be assessed for their ability to activate or block activation of the human S1P1 receptor in cells stably expressing the S1P1 receptor.
[…] binding was measured in the medium containing (mM) HEPES 25, pH 7.4, MgCl2 10, NaCl 100, dithitothreitol 0.5, digitonin 0.003%, 0.2 nM GTP γ^35S, and 5 μg membrane protein in a volume of 150 μl. Test compounds were included in the concentration range from 0.08 to 5,000 nM unless indicated otherwise. Membranes were incubated with 100 μM 5′-adenylylimmidodiphosphate for 30 min, and subsequently with 10 μM GDP for 10 min on ice. Drug solutions and membrane were mixed, and then reactions were initiated by adding GTP γ^355 and continued for 30 min at 25° C. Reaction mixtures were filtered over Whatman GF/B filters under vacuum, and washed three times with 3 mL of ice-cold buffer (HEPES 25, pH7.4, MgCl2 10 and NaCl 100). Filters were dried and mixed with scintillant, and counted for ^35S activity using a β-counter. Agonist-induced GTP γ^355 binding was obtained by subtracting that in the absence of agonist. Binding data were analyzed using a non-linear regression method. In case of antagonist assay, the reaction mixture contained 10 nM […] in the presence of test antagonist at concentrations ranging from 0.08 to 5000 nM.

T1 sequence (P21453 whole entry): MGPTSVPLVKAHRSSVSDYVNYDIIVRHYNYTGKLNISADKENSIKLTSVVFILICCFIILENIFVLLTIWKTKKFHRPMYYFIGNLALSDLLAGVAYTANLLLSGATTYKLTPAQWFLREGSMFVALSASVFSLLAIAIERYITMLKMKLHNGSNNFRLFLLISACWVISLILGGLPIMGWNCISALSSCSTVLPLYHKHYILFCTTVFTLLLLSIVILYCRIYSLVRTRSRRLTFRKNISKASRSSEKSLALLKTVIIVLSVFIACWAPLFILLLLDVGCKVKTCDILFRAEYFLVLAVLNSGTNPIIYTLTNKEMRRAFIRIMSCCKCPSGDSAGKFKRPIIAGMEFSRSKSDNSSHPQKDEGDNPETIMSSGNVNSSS

Row | pEC50 | SMILES
1 | 7.22 | CCC(Sc1nnc(-c2ccc(CN3CC(C(=O)O)C3)cc2C)o1)c1cccc([N+](=O)[O-])c1 (stereo not drawn) [Compound 3, 1-[3-Methyl-4-(5-{[1-(3-nitrophenyl)propyl]thio}-1,3,4-oxadiazol-2-yl)benzyl]azetidine-3-carboxylic acid]
2 | 7.73 | O=C(O)C1CN(Cc2ccc(-c3nnc(SCc4cccc(Cl)c4F)o3)cc2)C1 [Compound 1, 1-(4-{5-[(3-Chloro-2-fluorobenzyl)thio]-1,3,4-oxadiazol-2-yl}benzyl)azetidine-3-carboxylic acid]
3 | 7.78 | Cc1cc(CN2CC(C(=O)O)C2)ccc1-c1nnc(SC(C)c2cccc([N+](=O)[O-])c2)o1 (stereo not drawn) [Compound 2, 1-[3-Methyl-4-(5-{[1-(3-nitrophenyl)ethyl]thio}-1,3,4-oxadiazol-2-yl)benzyl]azetidine-3-carboxylic acid]
